According to patent US11999699B2, “Substituted pyrazole amides” (GRUENENTHAL GMBH, priority 2021, dated 2024):

Biological target: T1, human NaV1.8 (Homo sapiens, UniProt Q9Y5Y9)
T1 construct: The following NaV1.8 recombinant cell line was used for recordings: HEK-NaV1.8 (NM 006514.1); expressed in transfected cells; host or cells: HEK (recombinant cell line HEK-NaV1.8)
Experiment: Electrophysiology: automated whole-cell voltage-clamp (patch clamp, Qube384) recordings of sodium currents in HEK-NaV1.8 cells
Assay type: cell-based
Conditions: potency data either taken from inactivated or resting state, read-out: Potency category (human NaV1.8 IC50)
Method in brief: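 Automated whole-cell patch clamp at room temperature on HEK cells expressing human NaV1.8, with 0.3% DMSO vehicle controls. State-dependent protocol from −120 mV tested resting (P1) and half-inactivated (P2, 4 s at V1/2) channels, plus 40-pulse trains at 10 and 20 Hz. Values after ~12 min compound exposure were normalised to baseline and corrected for vehicle run-down; IC50 from a 4-parameter logistic fit, taken from inactivated or resting state.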

T1 sequence (Q9Y5Y9 whole entry): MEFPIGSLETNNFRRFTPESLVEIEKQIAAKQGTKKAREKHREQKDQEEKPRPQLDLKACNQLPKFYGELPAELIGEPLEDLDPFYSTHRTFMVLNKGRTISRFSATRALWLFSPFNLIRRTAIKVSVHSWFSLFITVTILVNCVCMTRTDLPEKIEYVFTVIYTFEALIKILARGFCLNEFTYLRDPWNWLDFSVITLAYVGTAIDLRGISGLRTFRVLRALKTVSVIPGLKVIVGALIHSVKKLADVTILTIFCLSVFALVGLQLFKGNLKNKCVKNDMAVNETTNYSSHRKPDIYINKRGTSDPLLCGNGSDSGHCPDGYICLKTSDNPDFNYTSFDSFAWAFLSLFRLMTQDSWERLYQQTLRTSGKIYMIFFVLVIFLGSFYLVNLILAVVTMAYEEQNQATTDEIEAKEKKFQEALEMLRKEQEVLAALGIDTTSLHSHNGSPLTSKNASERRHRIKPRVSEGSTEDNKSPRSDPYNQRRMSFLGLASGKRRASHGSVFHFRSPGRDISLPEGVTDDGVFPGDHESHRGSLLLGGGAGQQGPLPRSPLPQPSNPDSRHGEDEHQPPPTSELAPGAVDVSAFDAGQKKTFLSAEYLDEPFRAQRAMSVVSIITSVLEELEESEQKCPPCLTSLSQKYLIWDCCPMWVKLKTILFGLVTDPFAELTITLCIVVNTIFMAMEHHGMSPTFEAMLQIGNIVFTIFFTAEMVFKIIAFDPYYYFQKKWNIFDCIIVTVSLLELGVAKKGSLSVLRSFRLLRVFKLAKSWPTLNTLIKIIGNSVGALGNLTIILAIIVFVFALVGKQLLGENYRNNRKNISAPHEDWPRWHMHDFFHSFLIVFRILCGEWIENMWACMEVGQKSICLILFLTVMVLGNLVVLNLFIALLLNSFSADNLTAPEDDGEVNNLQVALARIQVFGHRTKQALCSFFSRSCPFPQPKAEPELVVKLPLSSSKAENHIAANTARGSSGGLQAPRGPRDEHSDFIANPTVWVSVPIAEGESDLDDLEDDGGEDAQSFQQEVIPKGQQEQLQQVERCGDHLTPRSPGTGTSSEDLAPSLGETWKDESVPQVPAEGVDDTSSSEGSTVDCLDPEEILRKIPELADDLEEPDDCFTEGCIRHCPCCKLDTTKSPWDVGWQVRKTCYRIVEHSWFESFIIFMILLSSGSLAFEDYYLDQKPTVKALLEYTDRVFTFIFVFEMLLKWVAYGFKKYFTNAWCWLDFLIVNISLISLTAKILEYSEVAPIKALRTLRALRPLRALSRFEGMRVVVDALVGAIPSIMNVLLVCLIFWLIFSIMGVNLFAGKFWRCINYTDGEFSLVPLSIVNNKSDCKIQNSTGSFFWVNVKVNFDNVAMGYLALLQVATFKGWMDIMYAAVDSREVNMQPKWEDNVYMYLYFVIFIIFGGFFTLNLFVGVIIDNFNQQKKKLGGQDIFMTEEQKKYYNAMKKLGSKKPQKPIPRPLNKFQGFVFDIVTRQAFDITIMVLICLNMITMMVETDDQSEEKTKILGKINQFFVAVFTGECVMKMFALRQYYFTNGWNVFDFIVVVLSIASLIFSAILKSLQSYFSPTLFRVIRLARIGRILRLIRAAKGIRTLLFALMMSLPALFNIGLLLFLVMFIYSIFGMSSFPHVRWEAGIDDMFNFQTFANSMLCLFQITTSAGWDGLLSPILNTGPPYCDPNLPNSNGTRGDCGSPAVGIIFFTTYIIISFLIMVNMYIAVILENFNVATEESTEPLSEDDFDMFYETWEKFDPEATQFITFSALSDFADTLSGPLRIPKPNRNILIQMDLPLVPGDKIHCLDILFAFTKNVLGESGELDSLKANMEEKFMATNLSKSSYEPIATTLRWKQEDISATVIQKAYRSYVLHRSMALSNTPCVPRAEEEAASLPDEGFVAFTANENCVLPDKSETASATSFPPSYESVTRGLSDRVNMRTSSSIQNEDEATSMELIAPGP
T1 sequence (Q9NY72 23-215 partner): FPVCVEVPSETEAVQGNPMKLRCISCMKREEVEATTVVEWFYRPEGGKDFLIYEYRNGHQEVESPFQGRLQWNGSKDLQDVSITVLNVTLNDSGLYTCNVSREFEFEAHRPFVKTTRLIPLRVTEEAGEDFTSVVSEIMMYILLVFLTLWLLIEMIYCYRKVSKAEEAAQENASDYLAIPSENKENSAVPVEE

Row | SMILES | IC50
1 | Cc1c(C(C)(F)F)nn(CC2C[C@H]2C(F)(F)F)c1C(=O)Nc1ccnc(C(N)=O)c1 (single isomer, unassigned) [SC-204a] | ≤ 100 nM
2 | Cc1nn(CC2CCO2)c(C(=O)Nc2cccc(S(C)(=O)=O)c2)c1C(F)(F)F (stereo not shown) [SC-237, 3-methyl-N-(3-(methyIsulfonyl)phenyl)-1-(oxetan-2-yimethyl)-4-(trifluoromethyl)-1H-pyrazole-5-carboxamide] | 1000 to 10000 nM
3 | Cc1c(C(C)(F)F)nn(CC2(C(F)(F)F)CC(F)(F)C2)c1C(=O)Nc1ccnc(C(N)=O)c1 [SC-299, 4-(1-((3,3-difluoro-1-(trifluoromethyl)cyclobutyl)methyl)-3-(1,1-difluoroethyl)-4-methyl-1H-pyrazole-5-ca±oxamido)picolinamide] | ≤ 100 nM
4 | CS(=O)(=O)c1cccc(NC(=O)c2c(C(F)(F)F)cnn2CC2CCOCC2)c1 [SC-28, N-(3-methylsulfonylphenyl)-2-(oxan-4-ylmethyl)-4-(trifluoromethyl)pyrazole-3-carboxamide] | 1000 to 10000 nM
5 | CS(=O)(=O)n1cc(NC(=O)c2c(C(F)(F)F)cnn2CC2CCCCC2)c2cccnc21 [SC-53, 1-(cyclohexylmethyl)-N-(1-(methylsulfonyl)-1H-pyrrolo[2,3-b]pyridin-3-yl)-4-(trifluoromethyl)-1H-pyrazole-5-carboxamide] | ≤ 100 nM
6 | CS(=O)(=O)c1ccc(F)c(NC(=O)c2c(C(F)(F)F)cnn2CC2CCC(F)(F)CC2)c1 [SC-22, 1-[(4,4-difluorocyclohexyl)methyl]-N-(2-fluoro-5-methanesulfonylphenyl)-4-(trifluoromethyl)-1H-pyrazole-5-carboxamide] | 1000 to 10000 nM
7 | Cc1c(C(C)(F)F)nn(C[C@H]2CCC(F)(F)C2)c1C(=O)Nc1cccc(S(N)(=O)=O)c1 (single isomer, unassigned) [SC-296b] | ≤ 100 nM
8 | NC(=O)c1cc(NC(=O)c2c(Cl)c(C3CC3)nn2CC2CCOCC2)ccn1 [SC-261, 4-(4-chloro-3-cyclopropyl-1-((tetrahydro-2H-pyran-4-yl)methyl)-1H-pyrazole-5-carboxamido)picolinamide] | 100 to 1000 nM
9 | Cc1c(C(C)(F)F)nn(CC2C[C@H]2C)c1C(=O)Nc1ccnc(S(N)(=O)=O)c1 (stereo partly shown) [SC-314, 3-(1,1-difluoroethyl)-4-methyl-1-((2-methyleyelopropyl)methyl)-N-(2-sulfamoylpyridin-4-yl)-lH-pyrazole-5-carboxamide] | ≤ 100 nM
10 | COc1cc(C(=O)Nc2cccc(S(C)(=O)=O)c2)n(CC2CCCCC2)n1 [SC-17, 2-(cyclohexylmethyl)-5-methoxy-N-(3-methylsulfonylphenyl)pyrazole-3-carboxamide] | 100 to 1000 nM
11 | Cc1c(C(C)(F)F)nn(CC2(C)CCC(F)(F)C2)c1C(=O)Nc1ccnc(S(N)(=O)=O)c1 (single isomer, unassigned) [SC-212a] | ≤ 100 nM
12 | Cc1c(C(C)(F)F)nn(CC2(C)CCC(F)(F)C2)c1C(=O)Nc1ccnc(S(C)(=O)=O)c1 (stereo not drawn) [SC-213, 1-((3,3-difluoro-1-methyleyclopentyl)methyl)-3-(1,l-difluoroethyl)-4-methyl-N-(2-(methylsulfonyl)pyridin-4-yl)-1H-pyrazole-5-carboxamide] | ≤ 100 nM
13 | COc1c(C(C)(F)F)nn(CC2CCC(F)(F)C2)c1C(=O)Nc1ccnc(C(N)=O)c1 (single isomer, unassigned) [SC-271a] | 100 to 1000 nM
14 | Cc1c(C(F)(F)C(F)(F)F)nn(CC2CCC2(F)F)c1C(=O)Nc1ccnc(C(N)=O)c1 (single isomer, unassigned) [SC-278a] | ≤ 100 nM
15 | NC(=O)c1cc(NC(=O)c2c(C(F)(F)F)c(OC3CC(F)(F)C3)nn2CC2CCC(F)(F)C2)ccn1 (stereo not shown) [SC-283, 4-(3-(3,3-difluorocyclobutoxy)-1-((3,3-difluorocyclopentyl)methyl)-4-(trifluoromethyl)-1H-pyrazole-5-carboxamido)picolinamide] | ≤ 100 nM
16 | CS(=O)(=O)c1cccc(NC(=O)c2c(C#N)cnn2CC2CCCCC2)c1 [SC-10, 4-cyano-1-(cyclohexylmethyl)-N-(3-(methylsulfonyl)phenyl)-1H-pyrazole-5-carboxamide] | 100 to 1000 nM
17 | CS(=O)(=O)c1cccc(NC(=O)c2c(C(F)(F)F)cnn2CC2CCCCC2)c1 [SC-26, 2-(cyclohexylmethyl)-N-(3-methylsulfonylphenyl)-4-(trifluoromethyl)pyrazole-3-carboxamide] | ≤ 100 nM
18 | Cc1nn(CC2CCC(F)(F)C2)c(C(=O)Nc2cccc(S(N)(=O)=O)c2)c1OC(F)(F)F (stereo not shown) [SC-304, 1-((3,3-difluorocyclopentyl)methyl)-3-methyl-N-(3-sulfamoyiphenyl)-4-(trifluoromethoxy)-1H-pyrazole-5-carboxamide] | 100 to 1000 nM
19 | CS(=O)(=O)c1cccc(NC(=O)c2c(C(F)(F)F)cnn2CC2CCCCCC2)c1 [SC-27, 2-(cycloheptylmethyl)-N-(3-methylsulfonylphenyl)-4-(trifluoromethyl)pyrazole-3-carboxamide] | ≤ 100 nM
20 | CS(=O)(=O)c1cccc(NC(=O)c2c(C(F)(F)F)cnn2CC2(O)CCCCC2)c1 [SC-255, 1-((1-hydroxycyclohexyl)methyl)-N-(3-(methylsulfonyl)phenyl)-4-(trifluoromethyl)-1H-pyrazole-5-carboxamide] | 1000 to 10000 nM
21 | CS(=O)(=O)c1cccc(NC(=O)c2c(C(F)(F)F)cnn2CC2CCCC(F)(F)C2)c1 (stereo not shown) [SC-23, 2-[(3,3-difluorocyclohexyl)methyl]-N-(3-methylsulfonylphenyl)-4-(trifluoromethyl)pyrazole-3-carboxamide] | 100 to 1000 nM
22 | Cc1c(C(C)(F)F)nn(CC2C[C@@H](F)[C@@H](F)C2)c1C(=O)Nc1ccnc(S(C)(=O)=O)c1 (stereo partly shown) [SC-224, 1-((3,4-difluorocyclopentyl)methyl)-3-(1,1-difluoroethyl)-4-methyl-N-(2-(methylsulfonyl)pyridin-4-yl)-1H-pyrazole-5-carboxamide] | 100 to 1000 nM

Now from value to compound:

Row | IC50 | SMILES
23 | 100 to 1000 nM | Cc1nn(CC2CCC(F)(F)CC2)c(C(=O)Nc2ccc(C(N)=O)nc2)c1C(F)(F)F [SC-257, 5-(1-((4,4-difluorocyclohexyl)methyl)-3-methyl-4-(trifluoromethyl)-1H-pyrazole-5-carboxamido)picolinamide]
24 | ≤ 100 nM | NC(=O)c1cc(NC(=O)c2c(Cl)c(C(F)(F)F)nn2CC2CCC(F)(F)C2)ccn1 (single isomer, unassigned) [SC-160b]
25 | 1000 to 10000 nM | Cc1nn(C[C@H]2CCC(F)(F)C2)c(C(=O)Nc2ccnc(C(N)=O)n2)c1C(F)(F)F [SC-248S]
26 | ≤ 100 nM | Cc1c(C(C)(F)F)nn(CC2CC(F)(F)C2)c1C(=O)Nc1ccnc(C(N)=O)c1 [SC-161, 4-(1-((3,3-difluorocyclobutyl)methyl)-3-(1,1-difluoroethyl)-4-methyl-1H-pyrazole-5-carboxamido)picolinamide]
27 | 100 to 1000 nM | Cc1cc(NC(=O)c2c(C(F)(F)F)c(C)nn2CC2CCC(F)(F)CC2)ccn1 [SC-252, 1-((4,4-difluorocyclohexyl)methyl)-3-methyl-N-(2-methylpyridin-4-yl)-4-(trifluoromethyl)-1H-pyrazole-5-carboxamide]
28 | ≤ 100 nM | NC(=O)c1cc(NC(=O)c2c(C(F)(F)F)c(C3CC3)nn2CC2CCCCO2)ccn1 (single isomer, unassigned) [SC-258a]
29 | ≤ 100 nM | NC(=O)c1cc(NC(=O)c2c(C(F)(F)F)c(C(F)F)nn2CC2CC(F)(F)C2)ccn1 [SC-324, 4-(1-((3,3-difluorocyclobutyl)methyl)-3-(difluoromethyl)-4-(trifluoromethyl)-1H-pyrazole-5-carboxamido)picolinamide]
30 | 100 to 1000 nM | C[C@@H]1CC[C@H](Cn2nc(C3CC3)c(C(F)(F)F)c2C(=O)Nc2ccnc(C(N)=O)c2)O1 (single isomer, unassigned) [SC-286a]
31 | 100 to 1000 nM | Cc1cnc(C(N)=O)cc1NC(=O)c1c(C(F)(F)F)c(C)nn1CC1CCC(F)(F)CC1 [SC-249, 4-(1-((4,4-difluorocyclohexyl)methyl)-3-methyl-4-(trifluoromethyl)-1H-pyrazole-5-carboxamido)-5-methyipicolinamide]
32 | 100 to 1000 nM | NC(=O)c1cc(NC(=O)c2c(C(F)(F)F)cnn2CC2CCC(F)(F)CC2)ccc1F [SC-39, N-(3-carbamoyl-4-fluorophenyl)-2-[(4,4-difluorocyclohexyl)methyl]-4-(trifluoromethyl)pyrazole-3-carboxamide]
33 | ≤ 100 nM | COc1nn(CC2CCC(F)(F)C2)c(C(=O)Nc2ccnc(S(C)(=O)=O)c2)c1C(F)(F)F (stereo not shown) [SC-225, 1-((3,3-difluorocyclopentyl)methyl)-3-methoxy-N-(2-(methylsulfonyl)pyridin-4-yl)-4-(trifluoromethyl)-1H-pyrazole-5-carboxamide]
34 | 1000 to 10000 nM | NC(=O)c1ccc(NC(=O)c2c(C(F)(F)F)cnn2CC2CCC(F)(F)CC2)cc1F [SC-21, N-(4-carbamoyl-3-fluorophenyl)-1-[(4,4-difluorocyclohexyl)methyl]-4-(trifluoromethyl)-1H-pyrazole-5-carboxamide]
35 | ≤ 100 nM | NC(=O)c1cc(NC(=O)c2c(C(F)(F)F)c(C3CC3)nn2CC2CC(F)(F)C2)ccc1F [SC-274, N-(3-carbamoyl-4-fluorophenyl)-3-cyclopropyl-1-((3,3-difluorocyclobutyl)methyl)-4-(trifluoromethyl)-1H-pyrazole-5-carboxamide]
36 | 1000 to 10000 nM | Cc1nn(CC2CCC(F)(F)CC2)c(C(=O)Nc2ccnc(C(N)=O)c2C)c1C(F)(F)F [SC-294, 4-(1-((4,4-difluorocyclohexyl)methyl)-3-methyl-4-(trifluoromethyl)-1H-pyrazole-5-carboxamido)-3-methylpicolinamide]
37 | ≤ 100 nM | NC(=O)c1cc(NC(=O)c2c(C(F)(F)F)c(C3CC3)nn2CC2CC(F)(F)C2(F)F)ccn1 (single isomer, unassigned) [SC-291b]
